For test [1], the target named is T1, aurora 2 kinase (Homo sapiens, UniProt O14965).
T1 construct: The amplified gene encoding aurora 2 kinase was introduced into Escherichia coli expression vector pET32a; made in house; host or cells: Escherichia coli BL21R (Novagen), vector pET32a
T1 sequence (O14965 1-403): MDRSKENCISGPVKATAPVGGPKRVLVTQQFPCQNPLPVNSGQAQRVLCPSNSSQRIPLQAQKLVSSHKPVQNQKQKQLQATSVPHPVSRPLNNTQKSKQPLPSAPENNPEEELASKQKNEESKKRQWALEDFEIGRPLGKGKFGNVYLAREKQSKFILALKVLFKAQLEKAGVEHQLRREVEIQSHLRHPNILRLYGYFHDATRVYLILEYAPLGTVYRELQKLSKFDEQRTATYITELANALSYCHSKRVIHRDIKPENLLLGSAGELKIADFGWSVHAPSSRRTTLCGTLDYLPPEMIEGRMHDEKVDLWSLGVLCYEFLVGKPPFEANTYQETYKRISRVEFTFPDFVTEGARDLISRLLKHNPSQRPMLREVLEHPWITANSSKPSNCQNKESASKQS
Nature of the test: Aurora 2 kinase assay (32P-ATP, peptide substrate LRRASLG). The test is classed as biochemical. To be noted: room temperature 60 min.

In test [2] the target is T2, Porcine brain tubulin protein (Sus scrofa, UniProt P02550+P02554).
T2 construct: 3.3 mg/ml Porcine brain tubulin protein: Cytoskeleton; purchased Cytoskeleton; host or cells: porcine brain (tissue-derived)
As to the kind of experiment: Tubulin polymerization assay (turbidity at 405 nm). The test is classed as biochemical. To be noted: 10 μM compound, maximum polymerization rate, 37° C.; read-out: inhibitory rate (%). Here is the method:
A tubulin polymerization reaction mixture (50 μL) (80 mM Pipes pH=6.9, 0.5 mM MgCl2, 1 mM EGTA, 1 mM GTP, 3.3 mg/ml Porcine brain tubulin protein: Cytoskeleton, 10 μM compound) was prepared in a 96 well flat bottom plate under ice-cooling. This was placed in a plate reader (IWAKI microplate reader, EZS-ABS) controlled to a temperature of 37° C., whereby a temperature dependent tubulin polymerization reaction was initiated. Since the turbidity of the reaction mixture increases as the tubulin polymerization proceeds, the absorbance at 405 nm was measured every other minute for 30 min to monitor the polymerization reaction. Of the 30 min measures, the three largest differences per min of turbidity (generally those immediately after start of the reaction) were taken, and the average of the three values was calculated and taken as the maximum polymerization rate. Inhibitory percent (%)=(C−T)/C×100 wherein T is the maximum polymerization rate of the reaction mixture containing the compound, and C is the maximum polymerization rate of the reaction mixture without the compound.

Test [3] has as its system human colon cancer cell line HCT-116. As to the kind of experiment: Cancer cell growth inhibition (WST-8), HCT-116. The format is cell-based. To be noted: HCT-116, 72 h, HCT116, 3 days, read-out: Cell proliferation suppressive activity value IC50. Here is the method:
(§1) Using RPMI1640 medium (manufactured by SIGMA) containing 10% fetal bovine serum, human prostate cancer cell line PC-3, human pancreatic cancer cell line PK-8, and human breast cancer cell line MDA-MB-453 were cultured at 37° C. under 5% CO2. Using DMEM/F-12 medium (manufactured by SIGMA) containing 10% fetal bovine serum, human colon cancer cell line HCT-116, human colon cancer cell line SW620, human ovarian cancer cell line SKOV-3, human prostate cancer cell line DU-145 and human pancreatic cancer cell line PANC-1 were cultured at 37° C. under 5% CO2. These cells were inoculated to a 96 well plate and cultured for one day. Thereto was added a compound diluted with a medium to a final concentration of 0.00064-20 μM (final DMSO concentration, 0.4%). After further cultivation for 3 days, WST-8 (0.16 mg/mL) was added to the culture medium and the culture medium was cultured for 2 hr. The absorbance at 650 nm was subtracted from the absorbance at 450 nm. The growth inhibitory activity was expressed by the decrease rate of the absorbance of compound addition group relative to the absorbance of compound non-addition group, and IC50 value was determined from the dose-reaction curve plotting the decrease rate of the absorbance, which was obtained by changing the concentration of the compound, and the concentration of the compound.

In test [4] the test system is human colon cancer cell line SW620. As to the kind of experiment: Cancer cell growth inhibition (WST-8), SW620. The test is classed as cell-based. To be noted: SW-620, 72 h, SW620, 3 days, read-out: Cell proliferation suppressive activity value IC50. Here is the method:
as §1

For test [5], the system named is human prostate cancer cell line PC-3. Nature of the test: Cancer cell growth inhibition (WST-8), PC-3. The format is cell-based. To be noted: 72 h, PC3, 3 days, read-out: Cell proliferation suppressive activity value IC50. Here is the method:
as §1

Test [6] deals with human ovarian cancer cell line SKOV-3. Nature of the test: Cancer cell growth inhibition (WST-8), SKOV-3. The format is cell-based. To be noted: SK-OV-3, 72 h, SKOV3, 3 days, read-out: Cell proliferation suppressive activity value IC50. Here is the method:
as §1

Test [7] relates to human pancreatic cancer cell line PK-8. As to the kind of experiment: Cancer cell growth inhibition (WST-8), PK-8. The test is classed as cell-based. To be noted: 72 h, PK8, 3 days, read-out: Cell proliferation suppressive activity value IC50. Here is the method: as §1
The test system of test [8] is human prostate cancer cell line DU-145. As to the kind of experiment: Cancer cell growth inhibition (WST-8), DU-145. The format is cell-based. To be noted: DU-145, 72 h, DU145, 3 days, read-out: Cell proliferation suppressive activity value IC50. Here is the method: as §1
Test [9] deals with human breast cancer cell line MDA-MB-453. Nature of the test: Cancer cell growth inhibition (WST-8), MDA-MB-453. The test is classed as cell-based. To be noted: MDA-MB-453, 72 h, MDAMB-453, 3 days, read-out: Cell proliferation suppressive activity value IC50. Here is the method: as §1
The subject of test [10] is human pancreatic cancer cell line PANC-1. As to the kind of experiment: Cancer cell growth inhibition (WST-8), PANC-1. The test is classed as cell-based. To be noted: 72 h, PANC-1, 3 days, read-out: Cell proliferation suppressive activity value IC50. Here is the method: as §1
Test [11] relates to human cancer cell lines. As to the kind of experiment: Cancer cell growth inhibitory effect, whole cell line panel. The format is cell-based. To be noted: over the panel of cell lines. Here is the method: as §1
Test [12] deals with T3, aurora 1 kinase (Homo sapiens, UniProt Q96GD4).
T3 construct: purchased UPSTATE
Nature of the test: Aurora 1 kinase assay (32P-ATP, peptide substrate LRRWSLG). The format is biochemical. To be noted: room temperature 60 min.

Each structure is given as a SMILES string. Counter-ions that a name gives are not always drawn.

T2 sequence (P02550 whole entry): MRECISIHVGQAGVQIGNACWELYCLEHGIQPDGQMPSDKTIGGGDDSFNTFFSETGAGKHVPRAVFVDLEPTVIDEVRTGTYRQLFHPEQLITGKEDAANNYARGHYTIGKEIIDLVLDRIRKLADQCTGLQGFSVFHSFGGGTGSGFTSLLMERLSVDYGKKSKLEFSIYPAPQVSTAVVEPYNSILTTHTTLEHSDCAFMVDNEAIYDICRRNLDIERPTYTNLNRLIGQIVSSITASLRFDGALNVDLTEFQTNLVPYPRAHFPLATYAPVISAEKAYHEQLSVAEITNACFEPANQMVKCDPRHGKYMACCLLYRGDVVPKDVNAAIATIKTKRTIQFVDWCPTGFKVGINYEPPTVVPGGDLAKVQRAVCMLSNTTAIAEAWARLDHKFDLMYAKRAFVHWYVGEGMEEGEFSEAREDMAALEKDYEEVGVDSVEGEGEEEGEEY
T2 sequence (P02554 whole entry): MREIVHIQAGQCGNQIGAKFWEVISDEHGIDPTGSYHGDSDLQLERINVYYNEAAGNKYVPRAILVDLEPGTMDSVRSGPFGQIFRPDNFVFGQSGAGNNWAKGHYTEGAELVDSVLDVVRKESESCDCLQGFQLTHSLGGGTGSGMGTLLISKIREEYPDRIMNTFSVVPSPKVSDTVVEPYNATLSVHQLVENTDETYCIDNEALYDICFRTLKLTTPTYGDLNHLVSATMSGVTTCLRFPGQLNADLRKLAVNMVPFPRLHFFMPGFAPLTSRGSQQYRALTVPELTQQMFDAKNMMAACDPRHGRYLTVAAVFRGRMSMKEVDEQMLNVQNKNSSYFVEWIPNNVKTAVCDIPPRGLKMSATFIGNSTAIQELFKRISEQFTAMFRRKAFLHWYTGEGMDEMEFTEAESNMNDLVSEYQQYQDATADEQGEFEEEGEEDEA
T3 sequence (Q96GD4 whole entry): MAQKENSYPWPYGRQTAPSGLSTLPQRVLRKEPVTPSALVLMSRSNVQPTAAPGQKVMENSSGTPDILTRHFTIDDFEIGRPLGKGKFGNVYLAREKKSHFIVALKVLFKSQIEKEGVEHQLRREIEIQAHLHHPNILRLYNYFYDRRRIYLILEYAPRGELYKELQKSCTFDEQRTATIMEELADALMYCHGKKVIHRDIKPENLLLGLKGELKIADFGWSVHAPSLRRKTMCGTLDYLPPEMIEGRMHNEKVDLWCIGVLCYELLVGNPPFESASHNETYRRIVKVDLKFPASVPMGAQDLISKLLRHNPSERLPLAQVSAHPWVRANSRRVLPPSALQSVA

Take `Cc1ccc(OCCNc2nc(Nc3cc(C)[nH]n3)cc(C)c2C#N)c(C)n1` [Example 23, 2-(2-(2,6-dimethylpyridin-3-yloxy)ethylamino)-6-(5-methyl-1H-pyrazol-3-ylamino)-4-methylnicotinonitrile dihydrochloride]: the affinity in test [1] corresponds to a Ki of 10 nM. The inhibition at 10 µM in [2] worked out at 77%. Also, the IC50 is 37 nM in test [3]; 40 nM in [4]; 21 nM in test [5]; 8 nM in test [6]; 13 nM in test [7]; 50 nM in test [8]. In addition, the IC50 in test [9] was 40 nM; in [10] it was 3 nM. In test [11], the “cancer cell growth inhibitory action (in words)” value is given as “good cancer cell growth inhibitory action over a broad range”.

Take `Cc1cc(Nc2cc(C)c(C#N)c(NCCOc3ccccc3)n2)n[nH]1` [Example 2, 2-(2-phenoxyethylamino)-6-(5-methyl-1H-pyrazol-3-ylamino)-4-methylnicotinonitrile]: the Ki was 3 nM in [1] and at most 100 nM in test [12]. Also, the inhibition at 10 µM in test [2] was found to be 69%. In addition, the IC50 was 11 nM in test [3]; 8 nM in test [4]; 17 nM in test [5]; 10 nM in test [6]; 18 nM in test [7]; 7 nM in test [8]. Moreover, the IC50 in test [9] is 7 nM; in test [10], 1290 nM.

In turn, `Cc1cc(Nc2cc(C)c(C#N)c(NCCOc3cccnc3C)n2)n[nH]1` [Example 22, 2-(2-(2-methylpyridin-3-yloxy)ethylamino)-6-(5-methyl-1H-pyrazol-3-ylamino)-4-methylnicotinonitrile dihydrochloride] came in with an inhibition constant Ki in [1] of 4 nM. For the same molecule, in [2], the inhibition at 10 µM came to 79%. Also, the IC50 in [3] is 4 nM; in test [4], below 6.4 nM; in [5], 15 nM; in test [6] it was 4 nM; in test [7] it was 7 nM; in test [8], 8 nM. In addition, the IC50 in test [9] and in [10] was below 6.4 nM in each case. Besides, the “cancer cell growth inhibitory action (in words)” value in test [11] is reported as “good cancer cell growth inhibitory action over a broad range”.

On to `Cc1ccc(OCCNc2nc(Nc3cc(C)[nH]n3)cc(C)c2C#N)cn1` [Example 21, 2-(2-(6-methylpyridin-3-yloxy)ethylamino)-6-(5-methyl-1H-pyrazol-3-ylamino)-4-methylnicotinonitrile], for which the inhibitory constant (Ki) in test [1] is 2 nM; in [12] it was at most 100 nM. Also, the inhibition at 10 µM in test [2] was determined as 63%. Further, the IC50 in test [3] came out at 7 nM; in test [4], 5 nM; in test [5] it was 4 nM; in test [6], 3 nM; in test [7] it was 8 nM; in test [8] it was 13 nM. Further, the IC50 in test [9] worked out at 12 nM; in [10], 14 nM. The “cancer cell growth inhibitory action (in words)” value in test [11] is recorded as “good cancer cell growth inhibitory action over a broad range”.

For `Cc1cc(Nc2ccc(C#N)c(NCCOc3cccnc3C)n2)n[nH]1` [Example 28, 2-(2-(2-methylpyridin-3-yloxy)ethylamino)-6-(5-methyl-1H-pyrazol-3-ylamino)nicotinonitrile dihydrochloride], the Ki in test [1] is 4 nM; in [12] it was at most 100 nM. Further, in test [2], the inhibition at 10 µM was found to be 69%. Besides, the IC50 is 3 nM in [3]; below 6.4 nM in [4]; below 6.4 nM in test [5]; below 6.4 nM in test [6]; below 6.4 nM in test [7]; 19 nM in test [8]. The IC50 in test [9] was found to be 4 nM; in [10], 6180 nM.

In turn, `Cc1cc(Nc2cc(C)c(C#N)c(NCCOc3cccc(F)c3)n2)n[nH]1` [Example 9, 2-(2-(3-fluorophenoxy)ethylamino)-6-(5-methyl-1H-pyrazol-3-ylamino)-4-methylnicotinonitrile hydrochloride] returned a Ki in test [1] of 1 nM. Also, the inhibition at 10 µM in [2] was 86%. The IC50 in test [3] is 17 nM; in [4], below 6.4 nM; in [5], below 6.4 nM; in test [6], below 6.4 nM; in test [7] it was 83 nM; in [8] it was 647 nM. Moreover, the values for the IC50 in test [9] and in test [10] were below 6.4 nM and 1180 nM, respectively.

Turning to `Cc1cc(Nc2cc(C)c(C#N)c(NCCOc3cccnc3)n2)n[nH]1` [Example 12, 2-(2-(pyridin-3-yloxy)ethylamino)-6-(5-methyl-1H-pyrazol-3-ylamino)-4-methylnicotinonitrile dihydrochloride], the inhibition constant (Ki) in test [1] is 2 nM; in [12], at most 100 nM. The inhibition at 10 µM in test [2] turned out to be 44%. In addition, the IC50 was 2 nM in test [3]; below 6.4 nM in test [4]; 7 nM in test [5]; 1 nM in test [6]; 4 nM in [7]; 7 nM in [8]. The results for the IC50 in test [9] and in test [10] were 3 nM and 9 nM, respectively. The “cancer cell growth inhibitory action (in words)” value in test [11] is recorded as “good cancer cell growth inhibitory action over a broad range”.

For the origin of these results see patent US7928126B2, “Cyanopyridine derivative and use thereof as medicine” (Mitsubishi Tanabe Pharma Corporation, priority 2005, dated 2011).
